Results from patent US4166765A, “Detecting Neisseria bacteria” (Corning Glass Works, priority 1977, dated 1979).

Tested on: 1,2-propanediol dehydrogenase
Test: Substrate specificity of the enzyme on analogs of 1,2-propanediol using NAD
Type: biochemical, Neisseria
Set-up: concentration or dose not given beside the values
Conditions: substrate with NAD; relative to 1,2-propanediol = 100
Experimental: The following reagents were added to 12×75 mm plastic tubes:
To each test tube was added 100 μl of a bacterial lysate. Incubations varied in time from being read immediately and continuously for 4 minutes, to allowing the assay tubes to incubate one-half hour before reading. All procedures and incubations were carried out at room temperature.
The samples were read at 340 nm (ultraviolet) on a Perkin-Elmer double beam spectrophotometer. A Honeywell Electronik 194 recorder was used to record absorbency. The tests that were read immediately and continuously for 4 minutes were allowed to record for the same time period. Those tests read after 30 minutes were not read continuously, but had their absorbencies recorded after the incubation period [Activity (A) was determined in the 4 minute monitored assay and in the 30 minute assay].
In order to examine the specificity of the substrate with respect to the enzyme, it was assayed on several analogs of 1,2-propanediol using NAD.

SMILES: OCC(O)CCl (stereo not shown) [1 chloro 2,3-propanediol]
- % Reactivity: 0%

SMILES: CCC(O)CO (stereo not shown) [1,2 butanediol]
- % Reactivity: 10%

SMILES: OCCO [1,2 ethanediol]
- % Reactivity: 0%

SMILES: OCC(O)CO [Glycerol]
- % Reactivity: 1%

SMILES: CCCO [1-propanol]
- % Reactivity: 0%

SMILES: OCCCO [1,3 propanediol]
- % Reactivity: 0%

SMILES: CC(C)O [2-propanol]
- % Reactivity: 0%

SMILES: O=C(CO)CO [Dihydroxyacetone]
- % Reactivity: 21%

SMILES: CC(O)CO (stereo not shown) [1,2-propanediol]
- % Reactivity: 100%

SMILES: CCO [Ethanol]
- % Reactivity: 0%
